The values that follow come from article PMC10808981, “Synthesis and structure–activity relationships of aryl fluorosulfate-based inhibitors as novel antitubercular agents” (Bioorganic & Medicinal Chemistry Letters, 2024).

For series [1], the system named is HepG2 cells. Conditions: for CC50: read-out: HepG2 CC50, HepG2, 3 days.
In series [2] the test system is HEK293T cells. The experiment in a line: HEK293T cytotoxicity assay (Cell Titer-Glo). Format: cell-based. Conditions: for CC50: HEK293T, 3 days. The method, then:
(§1) HEK293T (ATCC) were grown in DMEM (Gibco Cat # 11965-092) supplemented with 10% heat-inactivated FBS, Pen Strep (Gibco) 1X in a 5% CO2 humidified atmosphere at 37◦C. Cells were washed once with DPBS 1X (Gibco), incubated for less than 5 minutes at room temperature in TrypLE solution (Gibco), washed once in propagation medium to remove trypsin, and counted with Trypan Blue. 5 µL of cell suspension ([…]) was dispensed into 1536-well plates containing serial 3-fold drug dilution ranging from 40 µM to 2 nM and incubated for 3 days in a 5% CO2 humidified atmosphere at 37 ◦C. Cell Titer-Glo® Luminescent Cell Viability Assay (Promega) reagent was diluted 1:1 with water and then 2 µL were added to plates. Luminescence was measured in a PHERAStar plate reader (BMG Labtech) and data normalized to negative control (DMSO) minus inhibitor (Puromycin 10 µM). Dose-response curves were fit using the Smart Fit function in Genedata Screener Analyzer (v16.0.8).

Series [3] concerns Mtb H37Rv. The experiment in a line: MIC determination in Mtb H37Rv, Microdilution Alamar Blue Assay (MABA). The series is classed as cell-based, Mycobacterium tuberculosis. (Broth dilution looks for growth in wells or tubes with falling amounts of substance.)
The test system of series [4] is Mtb H37Ra. The experiment in a line: microbe, parasite or virus in culture. Format: cell-based. The note with it: Mycobacterium tuberculosis, 168 h, read-out: H37Ra IC50.
The nature of series [5]: HEK293T cytotoxicity assay (Cell Titer-Glo). The note with it: human, HEK293T cells; HEK293T, 3 days. Format: cell-based. The method, then:
as §1

A short description of series [6]: in vitro. The note with it: human.
In series [7] the test system is Mtb CDC1551. The experiment in a line: Anti-TB activity against Mtb CDC1551 (IC90), Alamar Blue. The note with it: Mycobacterium tuberculosis. The series is classed as cell-based.
The conditions of series [8]: mouse.
The nature of series [9]: in vivo. The note with it: mouse.
Series [10] in a line: in vitro. The note with it: mouse, plasma.
Series [11] is described as follows: in vitro. Conditions: mouse, po, 20 mg/kg.
The mark [12] stands for this setting: Mycobacterium tuberculosis, H37RV, 168 h, Mtb H37Rv, MABA, 7 days.

Where two headings read alike, the source gives them in different places.

The term MIC denotes the lowest concentration found to suppress growth. Read a high MIC as a less susceptible organism. For “4-((2,6-difluoro-4-(1H-1,2,3-triazol-1-yl)benzyl)oxy)phenyl sulfurofluoridate [Compound 3 m]”, the CC50 in [1] and in series [2] was greater than 40 µM throughout. This compound displayed an MIC in [3] (Mtb H37Rv, MABA, 7 days) of 0.22 µM.
For the compound “4-((2,6-difluoro-4-(3-isopropyl-1H-1,2,4-triazol-1-yl)benzyl)oxy)phenyl sulfurofluoridate [Compound 20 h]”, the CC50 in series [1] and in series [2] was greater than 40 µM throughout. The compound also yielded an MIC in [3] (Mtb H37Rv, MABA, 7 days) of 0.31 µM.
Broadly, the IC50 is the concentration needed to halve the response being measured. Turning to `CC(=O)Nc1ccc(COc2ccc(OS(=O)(=O)F)cc2)cc1` [Compound 2], in series [4], the half-maximal inhibitory concentration (IC50) was 1.3 µM.
As a reminder, the IC90 is the point of the concentration-response curve where the effect stands at 90%. As for `O=S(=O)(F)Oc1ccc(OCc2ccc(-n3cncn3)cc2)cc1` [Compound 3a, 4-((4-(1H-1,2,4-triazol-1-yl)benzyl)oxy)phenyl sulfurofluoridate], the CC50 at 72 h in [5] is 11.6 µM; in [6], 19.3 µM. In [7], the IC90 worked out at 4.71 µM. For the same compound, the MIC in series [3] (setting [12]) amounted to 2.84 µM. Moreover, the IC50 in series [4] worked out at 1.5 µM.
In the case of `COc1cc(OCc2ccc(-n3cncn3)cc2)ccc1OS(=O)(=O)F` [Compound 3b, 4-((4-(1H-1,2,4-triazol-1-yl)benzyl)oxy)-2-methoxyphenyl sulfurofluoridate], the CC50 at 3 days in series [5] was greater than 40 µM. Also, in series [6], the CC50 at 72 h stood at 13.3 µM. Besides, the IC90 in series [7] was greater than 30 µM. Moreover, the “anti-TB activity against Mtb (in words)” value in [3] was “not active”. This compound also displayed an MIC in series [3] (setting [12]) of 25 µM.
Take `O=S(=O)(F)Oc1ccc(OCc2ccc(-n3cncn3)cc2)cc1Cl` [Compound 3c, 4-((4-(1H-1,2,4-triazol-1-yl)benzyl)oxy)-2-chlorophenyl sulfurofluoridate]: the “cytotoxicity against HepG2 (in words)” value in series [1] was “exhibited cytotoxicity”. Besides, the “cytotoxicity against HEK293T (in words)” value in series [2] is listed as “exhibited cytotoxicity”. Moreover, the CC50 at 72 h amounted to 3.7 µM in series [5] and 5.8 µM in series [6]. The compound also gave an IC90 in series [7] of 4.64 µM.
As for `O=S(=O)(F)Oc1ccc(OCc2ccc(-n3cncn3)cc2F)cc1` [Compound 3d, 4-((2-fluoro-4-(1H-1,2,4-triazol-1-yl)benzyl)oxy)phenyl sulfurofluoridate], the CC50 at 72 h was found to be 22.7 µM in [5] and 12.5 µM in series [6]. The compound also had an IC90 in series [7] of 1.3 µM. Further, 0.6 µM was the least that counted as inhibitory in [3] (setting [12]) (MIC).
On to `O=S(=O)(F)Oc1ccc(OCc2c(F)cc(-n3cncn3)cc2F)cc1` [Compound 3i, 4-((2,6-difluoro-4-(1H-1,2,4-triazol-1-yl)benzyl)oxy)phenyl sulfurofluoridate], for which the “selectivity index (SI)” value in [1] (HepG2 cytotoxicity vs H37Rv MIC) was determined as 9.6. The compound also returned a CC50 at 3 days in series [5] greater than 40 µM. Moreover, the CC50 at 72 h in series [6] came to 5.8 µM. This compound displayed an MIC in [3] (setting [12]) of 0.6 µM.
In the case of `Cc1nc(C)n(-c2cc(F)c(COc3ccc(OS(=O)(=O)F)cc3)c(F)c2)n1` [Compound 20e, 4-((4-(3,5-dimethyl-1H-1,2,4-triazol-1-yl)-2,6-difluorobenzyl)oxy)phenyl sulfurofluoridate], the CC50 at 72 h in series [5] came out at 14.3 µM; in series [6] it was 8.1 µM. The same compound gave an MIC in series [3] (setting [12]) of 0.23 µM.
For the compound `COc1ncn(-c2cc(F)c(COc3ccc(OS(=O)(=O)F)cc3)c(F)c2)n1` [Compound 20f, 4-((2,6-difluoro-4-(3-methoxy-1H-1,2,4-triazol-1-yl)benzyl)oxy)phenyl sulfurofluoridate], the CC50 at 3 days in series [5] is greater than 40 µM. The compound further returned a CC50 in series [6] greater than 40 µM. Besides, in series [3] (setting [12]), 0.6 µM was the least that counted as inhibitory (MIC).
Consider `CS(=O)(=O)c1ncn(-c2cc(F)c(COc3ccc(OS(=O)(=O)F)cc3)c(F)c2)n1` [Compound 20i, 4-((2,6-difluoro-4-(3-(methylsulfonyl)-1H-1,2,4-triazol-1-yl)benzyl)oxy)phenyl sulfurofluoridate], for which the CC50 at 72 h came to 17.2 µM in [5] and 9.3 µM in [6]. For the same compound, the MIC in series [3] (setting [12]) is 0.4 µM.
In turn, `O=C(O)c1ncn(-c2cc(F)c(COc3ccc(OS(=O)(=O)F)cc3)c(F)c2)n1` [Compound 20j, 1-(3,5-difluoro-4-((4-((fluorosulfonyl)oxy)phenoxy)methyl)phenyl)-1H-1,2,4-triazole-3-carboxylic acid] returned a CC50 at 3 days in [5] greater than 40 µM. The CC50 in series [6] is greater than 40 µM. For the same compound, inhibition of growth in series [3] (setting [12]) (MIC) required 1.25 µM.
Regarding `CC(=O)Nc1ncn(-c2cc(F)c(COc3ccc(OS(=O)(=O)F)cc3)c(F)c2)n1` [Compound 21a, 4-((4-(3-acetamido-1H-1,2,4-triazol-1-yl)-2,6-difluorobenzyl)oxy)phenyl sulfurofluoridate], in series [5], the CC50 at 3 days was greater than 40 µM. The CC50 in series [6] is greater than 40 µM. In addition, 0.15 µM was the least that counted as inhibitory in series [3] (setting [12]) (MIC).
What is called Vd is a proportionality between amount in the body and measured concentration, not a real space. Lower therefore signals confinement near the circulation. The term Tmax denotes the time from dosing to the highest level. Usually Cmax stands for the maximum level reached in the sampled fluid or tissue. As a reminder, the bioavailability is the share of a dose that reaches the circulation, judged against a reference dose that is usually intravenous. Lower therefore signals little systemic uptake. In general, fraction unbound refers to the share of the substance not bound to proteins or other matrix. A low value points to extensive binding. Consider `CS(=O)(=O)Nc1ncn(-c2cc(F)c(COc3ccc(OS(=O)(=O)F)cc3)c(F)c2)n1` [Compound 21b, 4-((2,6-difluoro-4-(3-(methylsulfonamido)-1H-1,2,4-triazol-1-yl)benzyl)oxy)phenyl sulfurofluoridate], for which the “cytotoxicity against HepG2 (in words)” value in [1] is listed as “no cytotoxicity”. The “cytotoxicity against HEK293T (in words)” value in series [2] is on record as “no cytotoxicity”. This compound displayed a CC50 at 3 days in [5] greater than 40 µM. Also, the CC50 in series [6] was greater than 40 µM. Besides, the “coverage of plasma and lung levels above the H37Rv MIC” value in [8] (20 mg/kg PO, total levels) was roughly 24 h. The “unbound levels of plasma and lung coverage over MIC” value in series [8] (20 mg/kg PO, unbound levels) is reported as roughly 8 h. Further, in [8] (IV 3 mg/kg), the AUC0-24 is 7,085 hr*ng/mL, the Cl is on record as 7.05 mL/min/kg, the T1/2 amounted to 3.93 h and the Vd stood at 2.38 L/kg. Besides, in series [8] (PO 20 mg/kg), the AUC0-24 is listed as 47,615 hr*ng/mL, the T1/2 was 2.57 h and the Tmax worked out at 1.00 h. For the same compound, the “Clung at 8 h” value in [8] (PO 20 mg/kg, lung, 8 h) was 1,596 ng/mL. Further, in series [8] (PO 20 mg/kg, lung, 24 h), the “Clung at 24 h” value is 14.1 ng/mL. The “Cplasma at 8 h” value in [8] (PO 20 mg/kg, plasma, 8 h) is 2,120 ng/mL. Besides, in series [8] (PO 20 mg/kg, plasma, 24 h), the “Cplasma at 24 h” value is recorded as 22.6 ng/mL. Further, the Cmax in series [8] (in vivo, po, 20 mg/kg) is on record as 9,290 ng/mL. Further, the peak level in [9] (iv, 3 mg/kg) (Cmax) was 3310 ng/mL. In series [9] (po, 20 mg/kg), the bioavailability was found to be 99.4%. The same compound came in with a free fraction (fraction unbound) in [10] of 0.008. Also, the fraction unbound in [11] worked out at 0.016. In series [3] (Mtb H37Rv, MABA, 7 days), the “H37Rv MIC” value came to 0.06 ± 0.019 µM. The same compound came in with a minimal inhibitory concentration (MIC) in series [3] (Mycobacterium tuberculosis, H37RV) of 0.028 µg/mL. The MIC in [3] (setting [12]) is 0.06 µM.
`CC(C)S(=O)(=O)Nc1ncn(-c2cc(F)c(COc3ccc(OS(=O)(=O)F)cc3)c(F)c2)n1` [Compound 21e, 4-((2,6-difluoro-4-(3-((1-methylethyl)sulfonamido)-1H-1,2,4-triazol-1-yl)benzyl)oxy)phenyl sulfurofluoridate] returned a CC50 at 3 days in [5] greater than 40 µM. In [6], this compound yielded a CC50 greater than 40 µM. The compound also came in with an MIC in series [3] (setting [12]) of 0.31 µM.
With `CC(C)(C)S(=O)(=O)Nc1ncn(-c2cc(F)c(COc3ccc(OS(=O)(=O)F)cc3)c(F)c2)n1` [Compound 21f, 4-((4-(3-((1,1-dimethylethyl)sulfonamido)-1H-1,2,4-triazol-1-yl)-2,6-difluorobenzyl)oxy)phenyl sulfurofluoridate], in [5], the CC50 at 3 days was greater than 40 µM. The compound also gave a CC50 in series [6] greater than 40 µM. Also, in [3] (setting [12]), the MIC was found to be 2.5 µM.
